Counter-ions that a name gives are not always drawn. Like-named read-outs stand apart in the source and are kept apart here. Where only a bound is given, the exact number is not on record here.

These results are taken from patent US4873253A, “Phenylalanine derivative and proteinase inhibitor” (Okamoto; Shosuke, priority 1987, dated 1989).

Assay [1] concerns the target T1, human plasmin (Homo sapiens, UniProt P00747). Briefly: Antiplasmin activity: inhibition of fibrin decomposition. The format is biochemical. The conditions noted are these: Table 2, pH 7.4, 37° C., read-out: Plasmin Fibrin I50 (concentration doubling fibrin dissolution time). How it is done: (i) Determination of inhibition activity for fibrin decomposition
An inhibitor sample is dissolved in a 0.18 M borate-physiological salt buffer solution (pH=7.4) to make the total volume to 600 μl. To this buffer solution, 200 μl of a 0.2% bovine fibrinogen, 100 μl of a 0.3 casein unit/ml human plasmin solution, and 100 μl of a 50 unit/ml bovine thrombin solution, all dissolved in the above-mentioned buffer, are added at a temperature of 37° C. in a constant temperature bath. Then, the dissolution time of the fibrin mass formed above is determined.

Assay [2] concerns the target T1, human plasmin. Briefly: Antiplasmin activity: inhibition of S-2251 decomposition. The settings on record: Table 2; substrate S-2251, pH 7.4, 37° C. The class given is biochemical. The protocol: An inhibitor sample is dissolved in a 0.05 M Tris-hydrochloric acid buffer solution (pH=7.4) to make the total volume to 400 μl. […] Then, 50 μl of a 0.2 casein unit/ml human plasmin is added and the mixture is incubated at a temperature of 37° C. for 4 minutes. Thereafter, the reaction is stopped by adding 50 μl of 50% acetic acid.
Thus, the concentration I50 (μmol) of the inhibitor sample, at which the absorbance is one half (i.e., 1/2) of that obtained in the absence of the inhibitor, is determined.

The next assay concerns the target T2, bovine thrombin (Bos taurus, UniProt P00735).
T2 construct: a 0.2 unit/ml bovine thrombin solution
Briefly: Antithrombin activity: inhibition of fibrin formation (fibrinogen). The class given is biochemical. The protocol: (i) Determination of inhibition activity against fibrin formation
An inhibitor sample is dissolved in a 0.18 M borate-physiological salt buffer solution (pH= 7.4) to make the total volume to 500 μl. […] Thus, a coagulation time is determined. The inhibitor concentration I50 (μmol), at which the coagulation time obtained in the absence of the inhibitor is extended twice, is determined.

Another assay addresses T3, bovine trypsin (Bos taurus, UniProt P00760).
T3 sequence (P00760 24-246): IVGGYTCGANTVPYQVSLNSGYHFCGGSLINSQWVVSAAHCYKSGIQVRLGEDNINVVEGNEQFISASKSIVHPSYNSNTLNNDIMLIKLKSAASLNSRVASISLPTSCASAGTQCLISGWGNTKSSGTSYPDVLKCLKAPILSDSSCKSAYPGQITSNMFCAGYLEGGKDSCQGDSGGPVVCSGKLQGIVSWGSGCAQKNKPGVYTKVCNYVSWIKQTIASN
The experiment in a line: Antitrypsin activity: inhibition of S-2238 decomposition. The class given is biochemical. The conditions noted are these: Table 2; substrate S-2238, pH 8.1, 37° C.; read-out: Trypsin S-2238 I50. The protocol: Determination of inhibition activity against S-2238 decomposition
An inhibitor sample is dissolved in a 0.05 M Tris-imidazole buffer solution (pH=8.1) and 125 μl of a 1 mM S-2238 solution is added to make the total volume to 1.20 ml. The mixture is incubated at a temperature of 37° C. for 5 minutes in a constant temperature bath. To this mixture, 0.05 ml of bovine trypsin is added and the absorbance, at 405 nm, of the p-nitroaniline formed per minute is determined at a temperature of 37° C. by using the so-called initial velocity method. Thus, the concentration I50 (μmol) of a inhibitor sample, at which the absorbance is one half (i.e., 1/2) of that obtained in the absence of the inhibitor sample, is determined.

The next assay deals with human plasma kallikrein (Homo sapiens, UniProt P03952). Briefly: Anti-plasma kallikrein activity: inhibition of S-2302 decomposition. The conditions noted are these: Table 2; substrate S-2302, pH 7.8, 37° C.; read-out: Plasma Kallikrein S-2302 I50. The format is biochemical. The protocol:
Determination of inhibition activity for S-2302 decomposition
(§1) An inhibitor sample is dissolved in a 0.05 M Tris-hydrochloric acid buffer solution (pH=7.8) to make the total volume to 400 μl. To this solution, 50 μl of a 2 mM S-2302 solution is added and the mixture is incubated at a temperature of 37° C. for 5 minutes in a constant temperature bath. Then, 50 μl of a 0.12 unit/ml human plasma kallikrein is added and the mixture is incubated at a temperature of 37° C. for 5 minutes. Thereafter, 50 μl of 50% acetic acid is added to terminate the reaction. The absorbance of the p-nitroaniline formed in the reaction mixture is measured at 405 nm. Thus, the concentration I50 (μmol) of the inhibitor sample, at which the absorbance is one half (i.e., 1/2) of that obtained in the absence of the inhibitor sample, is determined.

The target of the next assay is human urokinase (Homo sapiens, UniProt P00749). Briefly: biochemical. The conditions noted are these: Table 2; substrate S-2444, pH 8.8, 37° C.; read-out: Urokinase S-2444 I50. The protocol: Determination of inhibition activity for S-2444 decomposition
as §1, with “solution (pH=8.8)” for “solution (pH=7.8)”, “a 1” for “a 2”, “mM S-2444” for “mM S-2302”, “a 500” for “a 0.12”, “human urokinase” for “human plasma kallikrein”

[3] abbreviates: Table 2, bovine fibrinogen, pH 7.4, 37° C., read-out: Thrombin Fibrinogen I50 (concentration doubling coagulation time).

Sequence of human plasma kallikrein (P03952 391-638 limits assumed): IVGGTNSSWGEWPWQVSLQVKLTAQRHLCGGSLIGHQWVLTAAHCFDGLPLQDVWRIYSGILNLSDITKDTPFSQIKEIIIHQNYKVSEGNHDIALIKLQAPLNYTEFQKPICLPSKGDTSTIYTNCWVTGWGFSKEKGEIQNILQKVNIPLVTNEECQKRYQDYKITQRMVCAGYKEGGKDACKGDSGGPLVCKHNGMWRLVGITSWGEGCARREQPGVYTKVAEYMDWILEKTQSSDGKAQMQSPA
Sequence of human plasma kallikrein (P03952 20-390 limits assumed): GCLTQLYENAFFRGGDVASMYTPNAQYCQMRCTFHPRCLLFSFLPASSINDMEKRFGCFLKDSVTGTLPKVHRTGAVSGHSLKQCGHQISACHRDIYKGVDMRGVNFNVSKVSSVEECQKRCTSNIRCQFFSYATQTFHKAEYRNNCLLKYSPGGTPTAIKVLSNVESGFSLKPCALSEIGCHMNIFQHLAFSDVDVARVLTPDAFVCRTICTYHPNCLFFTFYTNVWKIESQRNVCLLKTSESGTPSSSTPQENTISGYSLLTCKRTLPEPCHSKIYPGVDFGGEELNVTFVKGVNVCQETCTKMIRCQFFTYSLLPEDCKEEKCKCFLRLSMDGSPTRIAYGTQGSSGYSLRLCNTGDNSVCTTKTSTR
T1 sequence (P00747 581-810 limits assumed): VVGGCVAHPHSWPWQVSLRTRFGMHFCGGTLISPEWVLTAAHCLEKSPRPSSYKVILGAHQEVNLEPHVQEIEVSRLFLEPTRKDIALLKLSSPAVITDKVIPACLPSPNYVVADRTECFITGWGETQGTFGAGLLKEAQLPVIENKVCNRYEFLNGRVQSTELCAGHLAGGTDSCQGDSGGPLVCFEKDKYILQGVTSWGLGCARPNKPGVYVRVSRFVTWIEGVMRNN
T1 sequence (P00747 97-580 limits assumed): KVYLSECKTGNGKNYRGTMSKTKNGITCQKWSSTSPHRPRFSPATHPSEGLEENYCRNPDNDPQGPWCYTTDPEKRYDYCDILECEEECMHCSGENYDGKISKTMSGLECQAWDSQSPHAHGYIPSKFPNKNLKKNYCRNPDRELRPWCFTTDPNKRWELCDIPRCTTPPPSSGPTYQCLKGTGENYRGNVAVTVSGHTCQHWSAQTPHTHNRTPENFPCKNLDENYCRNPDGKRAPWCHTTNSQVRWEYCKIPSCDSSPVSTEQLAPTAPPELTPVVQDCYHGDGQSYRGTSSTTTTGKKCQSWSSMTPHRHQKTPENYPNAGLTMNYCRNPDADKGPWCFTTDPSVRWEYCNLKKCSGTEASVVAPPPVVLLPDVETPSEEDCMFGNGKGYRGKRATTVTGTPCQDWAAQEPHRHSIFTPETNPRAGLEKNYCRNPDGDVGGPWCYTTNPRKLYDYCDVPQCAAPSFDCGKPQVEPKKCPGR

Consider `N=C(N)c1ccc(NC(=O)C(Cc2cccc(Oc3ccccc3)c2)NC(=O)[C@H]2CC[C@H](CN)CC2)cc1` (mixture of isomers) [Compound 5, N-(trans-4-aminomethylcyclohexylcarbonyl)-3-phenoxy-DL-phenylalanine-4-amidinoanilide dihydrochloride], for which the IC50 is 12 µM on human plasmin [1]; 22 µM at human plasmin [2]; greater than 100 µM on bovine thrombin (setting [3]); 2.5 µM on bovine trypsin; 8.7 µM on human plasma kallikrein; 38 µM at human urokinase.

As to `NC[C@H]1CC[C@H](C(=O)NC(Cc2cccc(Oc3ccccc3)c2)C(=O)Nc2ncccc2C(=O)O)CC1` (mixture of isomers) [Compound 10, N-(trans-4-aminomethylcyclohexylcarbonyl)-3-phenoxy-DL-phenylalanine 2-nicotinylamide dihydrobromide], the IC50 was greater than 125 µM at bovine thrombin (setting [3]), greater than 150 µM at bovine trypsin, greater than 250 µM at human plasma kallikrein and greater than 250 µM on human urokinase.

Turning to `COCCCNC(=O)C(Cc1cccc(Oc2ccccc2)c1)NC(=O)[C@H]1CC[C@H](CN)CC1` (mixture of isomers) [Compound 14, N-(trans-4-amnomethylcyclohexylcarboonyl)-3-phenoxy-DL-phenylalanine 3-methoxypropylamide hydrochloride], the IC50 was 340 µM at human plasmin [1]; 940 µM against human plasmin [2]; greater than 500 µM on bovine thrombin (setting [3]); 100 µM at bovine trypsin; 340 µM at human plasma kallikrein; greater than 500 µM at human urokinase.

`NC[C@H]1CC[C@H](C(=O)NC(Cc2cccc(Oc3ccccc3)c2)C(N)=O)CC1` (mixture of isomers) [Compound 21, N-(trans-4-aminomethylcyclohexylcarbonyl)-3-phenoxy-DL-phenylalanine amide hydrochloride]: the IC50 at human plasmin [1] was 150 µM; on human plasmin [2], 320 µM; against bovine thrombin, greater than 200 µM; at bovine trypsin it was greater than 150 µM; at human plasma kallikrein it was greater than 400 µM; at human urokinase, greater than 1000 µM.

Regarding `NC[C@H]1CC[C@H](C(=O)NC(Cc2cccc(C(F)(F)F)c2)C(=O)N2CCOCC2)CC1` (mixture of isomers) [Compound 29, N-(trans-4-aminomethylcyclohexylcarbonyl)-3-trifluoromethyl-DL-phenylalanine morpholinoamide hydrochloride], the IC50 on human plasmin [1] was greater than 1000 µM; at human plasmin [2] it was greater than 1000 µM; at bovine thrombin, greater than 1000 µM; on bovine trypsin it was greater than 150 µM; on human plasma kallikrein, greater than 1000 µM; at human urokinase, greater than 1000 µM.

On to `CCOC(=O)c1ccccc1NC(=O)C(Cc1cccc(Oc2ccccc2)c1)NC(=O)[C@H]1CC[C@H](CN)CC1` (mixture of isomers) [Compound 4, N-(trans-4-aminomethylcyclohexylcarbonyl)-3-phenoxy-DL-phenylalanine 2-ethoxycarbonylanilide hydrochloride], for which the IC50 against human plasmin [2] is greater than 100 µM; against bovine thrombin it was greater than 50 µM; at bovine trypsin it was greater than 150 µM; at human plasma kallikrein, greater than 100 µM; on human urokinase it was greater than 200 µM.

Regarding `NC[C@H]1CC[C@H](C(=O)NC(Cc2cccc(OCc3ccccc3)c2)C(=O)Nc2cccnc2)CC1` (mixture of isomers) [Compound 22, N-(trans-4-aminomethylcyclohexylcarbonyl)-3-benzyloxy-DL-phenylalanine 3-pyridylamide dihydrochloride], the IC50 on human plasmin [1] was greater than 500 µM; on human plasmin [2], greater than 1000 µM; at bovine thrombin (setting [3]) it was greater than 500 µM; on bovine trypsin, greater than 150 µM; at human plasma kallikrein, greater than 500 µM.

With `CC(=O)c1ccc(NC(=O)C(Cc2cccc(Oc3ccccc3)c2)NC(=O)[C@H]2CC[C@H](CNC(=N)N)CC2)cc1` (mixture of isomers) [Compound 30, N-(trans-4-guanidinomethylcyclohexylcarbonyl)-3-phenoxy-DL-phenylalanine 4-acetylanilide methane sulfonate], the IC50 is greater than 50 µM on human plasmin [1], greater than 20 µM on human plasmin [2], greater than 150 µM at bovine trypsin and greater than 10 µM on human plasma kallikrein.

For `CCOC(=O)C1CCN(C(=O)C(Cc2cccc(Oc3ccccc3)c2)NC(=O)c2ccc(NC(=N)N)cc2)CC1` (racemic) [Compound 34, N-(4-guanidinobenzoyl)-3-phenoxy-DL-phenylalanine 4-ethoxycarbonyl piperidinoamide methane sulfonate], the IC50 at bovine thrombin (setting [3]) was greater than 50 µM; at bovine trypsin it was greater than 150 µM; on human plasma kallikrein, 270 µM; on human urokinase, greater than 200 µM.

Consider `N=C(N)Nc1ccc(C(=O)NC(Cc2cccc(Oc3ccccc3)c2)C(=O)N2CCC(C(=O)O)CC2)cc1` (racemic) [Compound 35, N-(4-guanidinobenzoyl)-3-phenoxy-DL-phenylalanine 4-hydroxycarbonyl piperidinoamide methane sulfonate], for which the IC50 at human plasmin [1] is greater than 200 µM; on human plasmin [2], greater than 500 µM; on bovine trypsin, 240 µM; at human plasma kallikrein, greater than 500 µM.

Take `N=C(N)Nc1ccc(C(=O)NC(Cc2cccc(Oc3ccccc3)c2)C(=O)Nc2ccc(CC(=O)O)cc2)cc1` (racemic) [Compound 36, N-(4-guanidinobenzoyl)-3-phenoxy-DL-phenylalanine 4-hydroxycarbonylmethylanilide hydrochloride]: the IC50 is greater than 25 µM at human plasmin [1], 25 µM against human plasmin [2], 17 µM on bovine trypsin and 1.9 µM at human plasma kallikrein.

On to `NC[C@H]1CC[C@H](C(=O)NC(Cc2cccc(Oc3ccccc3)c2)C(=O)Nc2cccnc2)CC1` (stereo partly drawn) [Compound 7], for which the IC50 on bovine thrombin (setting [3]) was greater than 1000 µM; on bovine trypsin, 15 µM; at human plasma kallikrein, 2 µM.

As for `NC[C@H]1CC[C@H](C(=O)NC(Cc2cccc(Oc3ccccc3)c2)C(=O)Nc2ncc[nH]2)CC1` (stereo partly drawn) [Compound 11], the IC50 is 220 µM at human plasmin [1]; 610 µM against human plasmin [2]; 68 µM on bovine trypsin; 190 µM on human plasma kallikrein; greater than 400 µM on human urokinase.

With `NC[C@H]1CC[C@H](C(=O)NC(Cc2cccc(Oc3ccccc3)c2)C(=O)Nc2nnn[nH]2)CC1` (stereo partly drawn) [Compound 13], the IC50 at bovine thrombin (setting [3]) is greater than 100 µM; at bovine trypsin, greater than 150 µM; at human plasma kallikrein it was greater than 200 µM; at human urokinase, greater than 200 µM.
